One assay concerns the target T1, human OX2 receptors (Homo sapiens, UniProt O43614).
T1 sequence (O43614 1-444): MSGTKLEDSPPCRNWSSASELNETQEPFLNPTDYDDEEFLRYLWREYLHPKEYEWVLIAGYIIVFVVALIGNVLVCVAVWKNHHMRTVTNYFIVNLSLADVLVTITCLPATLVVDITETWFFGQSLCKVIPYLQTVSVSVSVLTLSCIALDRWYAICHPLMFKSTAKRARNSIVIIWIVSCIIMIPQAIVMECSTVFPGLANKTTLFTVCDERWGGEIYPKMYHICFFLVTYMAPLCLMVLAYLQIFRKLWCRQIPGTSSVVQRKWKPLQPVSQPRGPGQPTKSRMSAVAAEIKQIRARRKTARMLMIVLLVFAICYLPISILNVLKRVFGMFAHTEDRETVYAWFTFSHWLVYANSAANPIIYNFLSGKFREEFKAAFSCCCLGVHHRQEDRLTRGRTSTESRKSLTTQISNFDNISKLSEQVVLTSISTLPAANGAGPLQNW
Nature of the assay: Calcium mobilization Ke. The format is cell-based. (Calcium flux is commonly read through the fluorescence of an indicator in the cells.)

Another assay concerns the target T2, human OX1 receptors (Homo sapiens, UniProt O43613).
T2 sequence (O43613 1-425): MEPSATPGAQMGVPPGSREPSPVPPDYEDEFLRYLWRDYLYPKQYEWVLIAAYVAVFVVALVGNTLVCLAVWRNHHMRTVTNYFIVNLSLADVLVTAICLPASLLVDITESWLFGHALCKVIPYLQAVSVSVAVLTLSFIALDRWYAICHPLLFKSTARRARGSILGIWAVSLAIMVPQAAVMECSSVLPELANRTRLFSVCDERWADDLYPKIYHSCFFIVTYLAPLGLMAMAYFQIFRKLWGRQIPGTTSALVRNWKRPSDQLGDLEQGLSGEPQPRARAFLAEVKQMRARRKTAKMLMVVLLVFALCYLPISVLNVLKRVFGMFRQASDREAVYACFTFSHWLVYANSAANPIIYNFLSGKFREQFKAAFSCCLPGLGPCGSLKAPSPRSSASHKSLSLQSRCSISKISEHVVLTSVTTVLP
The assay can be described thus: Calcium mobilization Ke. The class given is cell-based. As to conditions: for OX1 potency (in words): qualitative statement.

For the compound `CCOC(=O)CCCNc1ccc2c(c1)CCN(CC(=O)NCc1ccccc1)C2Cc1ccc(OC)c(OC)c1` (stereo not shown) [26d, Ethyl 4-({2-[(benzylcarbamoyl)methyl]-1-[(3,4-dimethoxyphenyl)methyl]-1,2,3,4-tetrahydroisoquinolin-6-yl}amino)butanoate], the Kb on human OX2 receptors is > 10000 nM. Further, on human OX1 receptors, the Kb worked out at 591 ± 67 nM and the “OX1 potency (in words)” value is recorded as “some activity”.
As to `CCOC(=O)Nc1ccc2c(c1)CCN(CC(=O)NCc1ccccc1)C2Cc1ccc(OC)c(OC)c1` (stereo not shown) [23b, Ethyl N-{2-[(benzylcarbamoyl)methyl]-1-[(3,4-dimethoxyphenyl)methyl]-1,2,3,4-tetrahydroisoquinolin-6-yl}carbamate], the Kb on human OX2 receptors is > 10000 nM. Further, on human OX1 receptors, the Kb was > 10000 nM and the “OX1 potency (in words)” value was “not active”.
With `CCC(=O)Oc1ccc2c(c1)CCN(CC(=O)NCc1ccccc1)C2Cc1ccc(OC)c(OC)c1` (stereo not shown) [compound 19, 2-[(Benzylcarbamoyl)methyl]-1-[(3,4-dimethoxyphenyl)methyl]-1,2,3,4-tetrahydroisoquinolin-6-yl propanoate], the Kb on human OX2 receptors is 1290 ± 130 nM; on human OX1 receptors, > 10000 nM.
Take `COC(=O)Nc1ccc2c(c1)CCN(CC(=O)NCc1ccccc1)C2Cc1ccc(OC)c(OC)c1` (stereo not shown) [23a, Methyl N-{2-[(benzylcarbamoyl)methyl]-1-[(3,4-dimethoxyphenyl)methyl]-1,2,3,4-tetrahydroisoquinolin-6-yl}carbamate]: on human OX2 receptors, the Kb is > 10000 nM. On human OX1 receptors, the Kb was determined as 2400 ± 320 nM and the “OX1 potency (in words)” value was “slight potency”.
Consider `COc1ccc(CCNc2ccc3c(c2)CCN(CC(=O)NCc2ccccc2)C3Cc2ccc(OC)c(OC)c2)cc1OC` (stereo not shown) [25j, N-Benzyl-2-(6-{[2-(3,4-dimethoxyphenyl)ethyl]amino}-1-[(3,4-dimethoxyphenyl)methyl]-1,2,3,4-tetrahydroisoquinolin-2-yl)acetamide], for which the Kb on human OX1 receptors was 2180 ± 360 nM. Further, the “mode of antagonism at OX1” value on human OX1 receptors (15 minute pre-incubation) is recorded as “insurmountable antagonism”; at human OX1 receptors (pre-incubation increased to 45 min and 60 min), “competitive antagonists”; at human OX1 receptors (simultaneous addition of antagonist and Orexin A) it was “competitive antagonists”.
For `COc1ccc(CC2c3ccc(N4CCCC4)cc3CCN2CC(=O)NCc2ccccc2)cc1OC` (stereo not shown) [25p, N-Benzyl-2-{1-[(3,4-dimethoxyphenyl)methyl]-6-(pyrrolidin-1-yl)-1,2,3,4-tetrahydroisoquinolin-2-yl}acetamide], at human OX1 receptors, the Kb came out at 2480 ± 6 nM and the “OX1 potency (in words)” value is given as “some potency”.
Consider `COC(=O)CCCCNc1ccc2c(c1)CCN(CC(=O)NCc1ccccc1)C2Cc1ccc(OC)c(OC)c1` (stereo not shown) [26f, Methyl 5-({2-[(benzylcarbamoyl)methyl]-1-[(3,4-dimethoxyphenyl)methyl]-1,2,3,4-tetrahydroisoquinolin-6-yl}amino)pentanoate], for which the Kb on human OX1 receptors is 1600 ± 190 nM.
As to `COc1ccc(CC2c3ccc(N(C)C)cc3CCN2CC(=O)NCc2ccccc2)cc1OC` (stereo not shown) [25a, N-Benzyl-2-{1-[(3,4-dimethoxyphenyl)methyl]-6-(dimethylamino)-1,2,3,4-tetrahydroisoquinolin-2-yl}acetamide], the Kb at human OX1 receptors was found to be 1370 ± 100 nM.
As for `CCCOc1ccc2c(c1)C(Cc1ccc(OC)c(OC)c1)N(CC(=O)NCc1ccccc1)CC2` (stereo not shown) [10c, N-Benzyl-2-{1-[(3,4-dimethoxyphenyl)methyl]-7-propoxy-1,2,3,4-tetrahydroisoquinolin-2-yl}acetamide], the values for the Kb at human OX2 receptors and on human OX1 receptors were 2550 ± 260 nM and 23.7 ± 7.9 nM, respectively. Also, the “mode of antagonism at OX1” value on human OX1 receptors (15 minute pre-incubation) is “competitive antagonism”. Also, the “selectivity for OX1 over OX2” value at human OX1 receptors (OX2 versus OX1 Ke) is reported as > 100 fold.
For the compound `COc1ccc2c(c1)C(Cc1ccc(OC)c(OC)c1)N(CC(=O)NCc1ccccc1)CC2` (stereo not shown) [10a, N-Benzyl-2-{1-[(3,4-dimethoxyphenyl)methyl]-7-methoxy-1,2,3,4-tetrahydroisoquinolin-2-yl}acetamide], the Kb came to 1680 ± 330 nM on human OX2 receptors and 512 ± 36 nM at human OX1 receptors.
Take `COc1ccc(CC2c3ccc(OCc4ccccc4)cc3CCN2CC(=O)NCc2ccccc2)cc1OC` (stereo not shown) [17d, N-Benzyl-2-[6-(benzyloxy)-1-[(3,4-dimethoxyphenyl)methyl]-1,2,3,4-tetrahydroisoquinolin-2-yl]acetamide]: the Kb on human OX1 receptors is > 10000 nM.
`COc1ccc(CC2c3ccc(NC(C)=O)cc3CCN2CC(=O)NCc2ccccc2)cc1OC` (stereo not shown) [28a, N-Benzyl-2-{1-[(3,4-dimethoxyphenyl)methyl]-6-acetamido-1,2,3,4-tetrahydroisoquinolin-2-yl}acetamide]: the Kb on human OX1 receptors was > 10000 nM.
Take `CCOC(=O)CCNc1ccc2c(c1)CCN(CC(=O)NCc1ccccc1)C2Cc1ccc(OC)c(OC)c1` (stereo not shown) [26c, Ethyl 3-({2-[(benzylcarbamoyl)methyl]-1-[(3,4-dimethoxyphenyl)methyl]-1,2,3,4-tetrahydroisoquinolin-6-yl}amino)propanoate]: at human OX1 receptors, the Kb is 809 ± 200 nM and the “OX1 potency (in words)” value is “some activity”.
As to `COc1ccc(CC2c3cc(OC(C)C)ccc3CCN2CC(=O)NCc2ccccc2)cc1OC` (stereo not shown) [10d, N-Benzyl-2-{1-[(3,4-dimethoxyphenyl)methyl]-7-(propan-2-yloxy)-1,2,3,4-tetrahydroisoquinolin-2-yl}acetamide], the Kb at human OX1 receptors came to 49.7 ± 11 nM.
On to `COc1ccc(CC2c3ccc(N(C)CC4CC4)cc3CCN2CC(=O)NCc2ccccc2)cc1OC` (stereo not shown) [25g, N-Benzyl-2-{6-[(cyclopropylmethyl)(methyl)amino]-1-[(3,4-dimethoxyphenyl)methyl]-1,2,3,4-tetrahydroisoquinolin-2-yl}acetamide], for which the Kb at human OX1 receptors amounted to 1400 ± 240 nM.
For the compound `COc1ccc(CC2c3ccc(NCc4ccccc4)cc3CCN2CC(=O)NCc2ccccc2)cc1OC` (stereo not shown) [25h, N-Benzyl-2-[6-(benzylamino)-1-[(3,4-dimethoxyphenyl)methyl]-1,2,3,4-tetrahydroisoquinolin-2-yl]acetamide], at human OX1 receptors, the Kb amounted to 1100 ± 290 nM.
Consider `COc1ccc(CC2c3ccc(NCCCc4ccccc4)cc3CCN2CC(=O)NCc2ccccc2)cc1OC` (stereo not shown) [25k, N-Benzyl-2-{1-[(3,4-dimethoxyphenyl)methyl]-6-[(3-phenylpropyl)amino]-1,2,3,4-tetrahydroisoquinolin-2-yl}acetamide], for which the Kb on human OX1 receptors was determined as 1180 ± 80 nM.
Still for that read-out and setting: then `COc1ccc(CC2c3ccc(NCc4cccnc4)cc3CCN2CC(=O)NCc2ccccc2)cc1OC` (stereo not shown) [25n, N-Benzyl-2-{1-[(3,4-dimethoxyphenyl)methyl]-6-[(pyridin-3-ylmethyl)amino]-1,2,3,4-tetrahydroisoquinolin-2-yl}acetamide], with 1270 ± 110 nM; and `COc1ccc(CC2c3ccc(NCc4ccncc4)cc3CCN2CC(=O)NCc2ccccc2)cc1OC` (stereo not shown) [25m, N-Benzyl-2-{1-[(3,4-dimethoxyphenyl)methyl]-6-[(pyridin-4-ylmethyl)amino]-1,2,3,4-tetrahydroisoquinolin-2-yl}acetamide], with > 10000 nM.
For the compound `CCCCCCN(C)c1ccc2c(c1)CCN(CC(=O)NCc1ccccc1)C2Cc1ccc(OC)c(OC)c1` (stereo not shown) [25u, N-Benzyl-2-{1-[(3,4-dimethoxyphenyl)methyl]-6-[hexyl(methyl)amino]-1,2,3,4-tetrahydroisoquinolin-2-yl}acetamide], the Kb on human OX1 receptors is > 10000 nM.
For the compound `COc1ccc(CC2c3ccc(OC(C)C)cc3CCN2CC(=O)NCc2ccccc2)cc1OC` (stereo not shown) [17c, N-Benzyl-2-{1-[(3,4-dimethoxyphenyl)methyl]-6-(propan-2-yloxy)-1,2,3,4-tetrahydroisoquinolin-2-yl}acetamide], the Kb on human OX1 receptors is > 10000 nM.

For the origin of these results see paper PMC4554834 (Bioorganic & medicinal chemistry, 2015).
